Values of other authors, collected in US20070134244A1, “Combination treatment for pathologic ocular angiogenesis” (Alcon, Inc., priority 2005, published 2007).

Tested on: xenotransplant models of colon cancer
Conditions: xenotransplant models of colon cancer in nude (athymic) mice; Presta et al. 1997

bevacizumab
metastatic disease progression: inhibition of metastatic disease progression | microvascular growth: reduction of microvascular growth
